Reference: the supplement of paper PMC10307832

What was measured:
Experiment in all cases: relative viability (nuclei count vs DMSO), 5 days (fraction); higher = more cells survive
[1] = compound: O[C@H]1CC[C@H](Nc2ncc3nc(Nc4c(F)cc(F)cc4F)n([C@H]4CCOC4)c3n2)CC1 [Tanzisertib] + Nc1nc2[nH]cc(CCc3ccc(C(=O)N[C@@H](CCC(=O)O)C(=O)O)cc3)c2c(=O)[nH]1 [Pemetrexed] (partner 0.2 µM)
Outline: (§1)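 A single step with final 0.05% Triton X-100, 1% formaldehyde and 1 ug/ml Hoechst fixed the cells and stained nuclei 5 days after treatment. Lung cancer cell lines in 1536-well plates had been treated by pin tool the day after seeding with one drug alone or a fixed anchor-drug dose plus five library-drug doses (not always all listed) in √10 steps, and nuclei were counted on 4× images. Relative viability is the ratio of nuclei in treated wells to nuclei in vehicle wells, taken as the median of duplicate plates.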

[2] = compound: C[C@@H](N)c1ccc(C(=O)Nc2ccnc3[nH]ccc23)cc1 + Cc1cc(Nc2cc(N3CCN(C)CC3)nc(Sc3ccc(NC(=O)C4CC4)cc3)n2)n[nH]1 [Tozasertib] (partner 0.1 µM)
Outline: as §1

[3] = compound: O[C@H]1CC[C@H](Nc2ncc3nc(Nc4c(F)cc(F)cc4F)n([C@H]4CCOC4)c3n2)CC1 [Tanzisertib] + CC1(C)CCC(c2ccc(Cl)cc2)=C(CN2CCN(c3ccc(C(=O)NS(=O)(=O)c4ccc(N[C@H](CCN5CCOCC5)CSc5ccccc5)c(S(=O)(=O)C(F)(F)F)c4)cc3)CC2)C1 [Navitoclax] (partner 0.5 µM)
Outline: as §1

[4] = compound: C[C@@H](N)c1ccc(C(=O)Nc2ccnc3[nH]ccc23)cc1 + CC(C)C[C@H](NC(=O)[C@H](Cc1ccccc1)NC(=O)c1cnccn1)B(O)O [Bortezomib] (partner 0.002 µM)
Outline: as §1

Cell Line	relative viability ([1]; first compound 0.08 µM)	relative viability ([1]; first compound 0.253 µM)	relative viability ([1]; first compound 0.8 µM)	relative viability ([1]; first compound 2.53 µM)	relative viability ([1]; first compound 8 µM)	relative viability ([2]; first compound 0.04 µM)	relative viability ([2]; first compound 0.1265 µM)	relative viability ([2]; first compound 0.4 µM)	relative viability ([2]; first compound 1.265 µM)	relative viability ([2]; first compound 4 µM)	relative viability ([3]; first compound 0.08 µM)	relative viability ([3]; first compound 0.253 µM)	relative viability ([3]; first compound 0.8 µM)	relative viability ([3]; first compound 2.53 µM)	relative viability ([3]; first compound 8 µM)	relative viability ([4]; first compound 0.04 µM)	relative viability ([4]; first compound 0.1265 µM)	relative viability ([4]; first compound 0.4 µM)	relative viability ([4]; first compound 1.265 µM)	relative viability ([4]; first compound 4 µM)
NCI-H520	0.589	0.714	0.67	0.561	0.642	0.52	0.462	0.448	0.535	0.424	1.12	1.1	1.1	1.01	1.11	0.756	0.716	0.628	0.638	0.54
NCI-H1755	0.368	0.451	0.565	0.408	0.404	0.568	0.602	0.725	0.581	0.559	1.1	1.02	0.98	0.982	0.931	0.929	0.949	0.966	0.906	0.677
NCI-H1993	0.621	0.585	0.605	0.561	0.54	0.579	0.591	0.56	0.639	0.6	1.08	0.909	0.947	0.924	0.803	1.19	1.13	–	0.943	1.15
NCI-H23	0.785	0.761	0.682	0.681	0.584	0.377	0.358	0.425	–	0.501	0.964	0.75	0.912	0.86	0.819	1.21	1.17	1.11	–	1.03
NCI-H1437	0.321	0.327	0.322	0.315	0.263	0.462	0.433	0.448	0.436	0.408	1.14	1.1	1.08	1.13	1.08	0.623	0.53	0.563	0.427	0.555
NCI-H2405	1.1	1.1	1	1.24	0.955	0.858	0.832	0.759	0.507	0.35	0.968	0.837	1.02	1.03	0.688	0.895	0.973	0.903	0.274	0.491
NCI-H2023	0.287	0.222	0.215	0.202	0.205	0.426	0.377	0.395	0.462	0.279	1.07	1.05	1.08	0.999	0.962	0.948	0.925	1.1	0.421	0.953
NCI-H838	0.234	0.255	0.254	0.233	0.25	0.268	0.281	0.224	0.219	0.189	1.18	1.15	1.26	1.18	1.12	0.624	0.758	0.605	0.393	0.342
NCI-H1734	0.428	0.423	0.408	0.403	0.402	0.263	0.247	0.259	0.213	0.202	1.03	0.777	0.852	0.867	0.757	0.847	0.915	0.911	–	0.759
NCI-H1650	0.349	0.351	0.511	0.33	0.329	0.386	0.483	0.394	0.291	0.37	1.19	1.22	1.17	1.16	1.12	0.227	0.199	0.221	0.205	0.203
NCI-H596	0.506	0.538	0.515	0.516	0.467	0.934	0.839	0.978	–	0.843	0.978	0.91	0.972	0.888	0.96	1.05	0.856	1.14	1.23	1.26
HCC-15	0.228	0.208	0.199	0.207	0.21	0.519	0.332	0.507	–	0.657	0.754	0.699	0.702	0.671	0.694	1.11	1.02	1.05	–	0.93
HOP-62	0.301	0.346	0.31	0.315	0.353	0.328	0.351	0.369	0.398	0.297	0.978	0.994	0.819	1.11	1.26	0.983	0.62	0.675	0.49	0.922
NCI-H3122	0.2	0.192	0.193	0.19	0.188	0.397	0.357	0.497	–	0.468	1.03	1.02	1.04	1.07	0.972	1.05	0.979	1.04	1	0.912
NCI-H647	0.204	0.185	0.18	0.151	0.156	0.322	0.227	0.426	0.324	0.303	1.11	1.18	1.22	1.3	0.943	0.846	1.02	1.09	0.868	0.869
EKVX	0.467	0.341	0.41	0.34	0.337	0.421	0.379	0.494	0.44	0.438	0.95	0.923	0.96	0.91	0.861	1.08	1	1.39	0.992	0.971
